How the values were obtained:
obstructive kidney (UUO) = assay: UUO model, daily S3I-201 treatment; format: in vivo, mouse; conditions: for STAT3 phosphorylation: 10 mg/kg i.p. daily
Experimental: Unilateral […] obstruction (UUO) model and S3I-201 treatment. The UUO model was established in male C57 black mice that weighed 20-25 g (Jackson Laboratory, Bar Harbor, Me.) as described previously. The contralateral kidneys were used as controls. To examine the efficacy of S3I-201 in renal fibrosis after UUO injury, S3I-201 (10 mg/kg) in 50 μl of dimethyl sulfoxide (DMSO) was intraperitoneally administered to mice immediately after ureter ligation and then given daily for 6 or 13 days. Mice were randomized into 4 groups with 6-7 mice in each group as follows: (1) sham injury with DMSO as vehicle; (2) sham injury with S3I-201; (3) UUO injury with DMSO; (4) UUO injury with S3I-201.
Western blot analysis and Sirius red and immunofluorescent staining were carried out according to standard methods.
(§1) Quantitative real-time PCR. Real time qRT-PCR amplifications were performed in 20 μl reactions. The amplification protocol was as follows: denaturation for 10 minutes and enzyme activation at 95° C., 40 cycles of 95° C.×10 sec, 59° C.×30 sec, and 72° C.×20 sec, followed by one step […] at 72° C. for 5 minutes. Relative mRNA abundance was determined from the ratios of specific mRNA to 18S ribosomal RNA measured in the same samples, and fold change was calculated relative to the group of sham-operated mice with vehicle treatment.
ELISA. Protein levels of TGF-β1, TNF-α, and IL-1β in kidney homogenates were determined using specific sandwich enzyme immunometric assay kits, ELISA Ready-SET-Go (eBioscience, Inc. San Diego, Calif.) as described previously. The results were normalized by total protein content in kidney homogenates.
In situ TUNEL assays. Terminal deoxynucleotidyl transferase biotin-dUTP nick end-labeling (TUNEL) staining was used to detect DNA strand breaks using a detection kit, according to the instructions provided by the manufacturer. The number of TUNEL-positive nuclei per field was evaluated in five fields per section and five sections per kidney.

NRK-49F cells = assay: S3I-201 in cultured renal interstitial fibroblasts (immunoblot, qRT-PCR); format: cell-based, rat
Experimental: as §1, with “Cell culture and treatments. NRK-49F cells were cultured in Dulbecco's modified eagle's medium (DMEM) (Sigma-Aldrich, St. Louis, Mo.) containing 10% fetal bovine serum (FBS), 0.5% penicillin and streptomycin in an atmosphere of 5% CO2 and 95% air at 37° C. Western blot analysis and Sirius red and immunofluorescent staining were carried out according to standard methods. Quantitative” for “Quantitative”

[1] = dose- and time-dependent, 24 h dose series, 50 μM time course

Cc1ccc(S(=O)(=O)OCC(=O)Nc2ccc(C(=O)O)c(O)c2)cc1 [S3I-201]
apoptosis of interstitial cells (TUNEL) (obstructive kidney (UUO); 10 mg/kg daily for 7 days): increased apoptosis | apoptosis of renal tubular cells (TUNEL) (obstructive kidney (UUO); 10 mg/kg daily for 7 days): did not induce apoptosis | proliferation of interstitial cells (phospho-histone H3 Ser 10) (obstructive kidney (UUO); 10 mg/kg daily for 7 days): decreased their proliferation | ICAM-1 mRNA expression (obstructive kidney (UUO); 10 mg/kg daily, day 7): reduced | IL-1β mRNA expression (obstructive kidney (UUO); 10 mg/kg daily, day 7): reduced | IL-1β protein (ELISA) (obstructive kidney (UUO); 10 mg/kg daily, day 7): significantly suppressed | Sirius red-positive areas (obstructive kidney (UUO); 10 mg/kg daily, day 7): significantly reduced | TGF-β1 mRNA expression (obstructive kidney (UUO); 10 mg/kg daily, day 7): reduced their levels | TGF-β1 protein (ELISA) (obstructive kidney (UUO); 10 mg/kg daily, day 7): decreased | TNF-α mRNA expression (obstructive kidney (UUO); 10 mg/kg daily, day 7): reduced | TNF-α protein (ELISA) (obstructive kidney (UUO); 10 mg/kg daily, day 7): significantly suppressed | TβRI mRNA expression at the basal level (obstructive kidney (UUO); 10 mg/kg daily, day 7): not affected | TβRII mRNA expression (obstructive kidney (UUO); 10 mg/kg daily, day 7): reduced their levels | TβRIII mRNA basal level (obstructive kidney (UUO); 10 mg/kg daily, day 7): reduced the basal level | UUO injury-induced MCP-1 mRNA expression (obstructive kidney (UUO); 10 mg/kg daily, day 7): did not affect | UUO-induced collagen type 1 mRNA expression (obstructive kidney (UUO); 10 mg/kg daily, day 7): attenuated this response | basal level of collagen type 1 expression in control kidneys (obstructive kidney (UUO); 10 mg/kg daily, day 7): did not affect | basal level of α-SMA expression in control kidneys (obstructive kidney (UUO); 10 mg/kg daily, day 7): did not affect | collagen type 1 expression in obstructive kidneys (obstructive kidney (UUO); 10 mg/kg daily, day 7): decreased collagen type 1 to the basal level | decrease in expression of ECM components (Sirius red, semi-quantitative) (obstructive kidney (UUO); 10 mg/kg daily, day 7): approximately 60% | expression of snail (obstructive kidney (UUO); 10 mg/kg daily, day 7): did not affect | expression of β-catenin (obstructive kidney (UUO); 10 mg/kg daily, day 7): did not affect | fibronectin expression (immunoblot densitometry) (obstructive kidney (UUO); 10 mg/kg daily, day 7): blocked | fibronectin expression (immunostaining) (obstructive kidney (UUO); 10 mg/kg daily, day 7): decreased its expression | leukocyte infiltration (naphthol AS-D chloroacetate esterase staining) (obstructive kidney (UUO); 10 mg/kg daily, day 7): reduced leukocyte infiltration to basal levels | α-SMA expression in obstructive kidneys (obstructive kidney (UUO); 10 mg/kg daily, day 7): inhibited | total STAT3 expression (obstructive kidney (UUO); 10 mg/kg daily, day 7 and day 14): not affected | collagen type 1 expression (obstructive kidney (UUO); 10 mg/kg daily, day 14): decreased | α-SMA expression (obstructive kidney (UUO); 10 mg/kg daily, day 14): decreased | STAT3 phosphorylation (obstructive kidney (UUO); day 7): largely suppressed | STAT3 phosphorylation (obstructive kidney (UUO); day 14): small inhibition | expression of p-STAT3 (NRK-49F cells; 100 μM, 3 h): complete inhibition | TGF-β1 mRNA expression (NRK-49F cells; 5% FBS, 50 μM S3I-201, 6 h): significantly decreased | TβRII mRNA expression (NRK-49F cells; 5% FBS, 50 μM S3I-201, 6 h): significantly decreased | TβRIII mRNA expression (NRK-49F cells; 5% FBS, 50 μM S3I-201, 6 h): significantly decreased | expression of p-STAT1 (NRK-49F cells; 3 h, dose dependent): increased | STAT5 phosphorylation (NRK-49F cells; 3 h, indicated concentrations): did not affect | expression of fibronectin (NRK-49F cells; [1]): dramatically decreased | expression of α-SMA (NRK-49F cells; [1]): dramatically decreased

From patent US9572787B2, “Inhibition of renal fibrosis” (Rhode Island Hospital, priority 2011, dated 2017)
